According to ChEMBL document CHEMBL3886247, “Aurora and FLT3 kinases modulators” (2015):

What was measured:
Aurora kinase B = Aurora kinase B (Homo sapiens, UniProt Q96GD4); assay: Inhibition Assay: Kinase assays were performed at Reaction Biology Corp., Malvern, Pa., USA, using the following general procedure:1) Prepare indicated substrate in freshly prepared Base Reaction Buffer (20 mM Hepes pH 7.5, 10 mM MgCl2, 1 mM EGTA, 0.02% Brij35, 0.02 mg/ml BSA, 0.1 mM Na3VO4, 2 mM DTT, 1% DMSO).2) Deliver cofactors (1.5 mM CaCl2, 16 ug/mL Calmodulin, 2 mM MnCl2) to the substrate solution above.3) Deliver indicated kinase into the substrate solution and gently mix4) Deliver varying concentrations of test compound in DMSO into the kinase reaction mixture.5) Deliver 33P-ATP (specific activity 0.01 uCi/uL final) into the reaction mixture to initiate the reaction.6) Incubate kinase reaction for 120 min at room temperature.7) Reactions are spotted onto P81 ion exchange filter paper (Whatman #3698-915)8) Unbound phosphate is removed by washing filters extensively in 0.75% phosphoric acid.9) 33P signal was determined using Typhoon phosphorimagers (GE Healthcare).
Chain of Aurora kinase B (Q96GD4 whole entry): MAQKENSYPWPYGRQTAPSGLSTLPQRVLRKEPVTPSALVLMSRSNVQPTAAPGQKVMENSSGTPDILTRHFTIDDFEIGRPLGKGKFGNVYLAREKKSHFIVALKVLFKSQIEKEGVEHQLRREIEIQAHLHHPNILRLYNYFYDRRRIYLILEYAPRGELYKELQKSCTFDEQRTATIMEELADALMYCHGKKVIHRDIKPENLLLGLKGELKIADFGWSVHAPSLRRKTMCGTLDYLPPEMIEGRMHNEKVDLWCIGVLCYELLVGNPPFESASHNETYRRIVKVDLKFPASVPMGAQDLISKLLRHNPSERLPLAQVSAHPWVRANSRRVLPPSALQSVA

[1] = target: T1, Receptor-type tyrosine-protein kinase FLT3 (Homo sapiens, UniProt P36888); assay: Inhibition Assay: Kinase assays were performed at Reaction Biology Corp., Malvern, Pa., USA, using the following general procedure:1) Prepare indicated substrate in freshly prepared Base Reaction Buffer (20 mM Hepes pH 7.5, 10 mM MgCl2, 1 mM EGTA, 0.02% Brij35, 0.02 mg/ml BSA, 0.1 mM Na3VO4, 2 mM DTT, 1% DMSO).2) Deliver cofactors (1.5 mM CaCl2, 16 ug/mL Calmodulin, 2 mM MnCl2) to the substrate …
T1 sequence (P36888 whole entry): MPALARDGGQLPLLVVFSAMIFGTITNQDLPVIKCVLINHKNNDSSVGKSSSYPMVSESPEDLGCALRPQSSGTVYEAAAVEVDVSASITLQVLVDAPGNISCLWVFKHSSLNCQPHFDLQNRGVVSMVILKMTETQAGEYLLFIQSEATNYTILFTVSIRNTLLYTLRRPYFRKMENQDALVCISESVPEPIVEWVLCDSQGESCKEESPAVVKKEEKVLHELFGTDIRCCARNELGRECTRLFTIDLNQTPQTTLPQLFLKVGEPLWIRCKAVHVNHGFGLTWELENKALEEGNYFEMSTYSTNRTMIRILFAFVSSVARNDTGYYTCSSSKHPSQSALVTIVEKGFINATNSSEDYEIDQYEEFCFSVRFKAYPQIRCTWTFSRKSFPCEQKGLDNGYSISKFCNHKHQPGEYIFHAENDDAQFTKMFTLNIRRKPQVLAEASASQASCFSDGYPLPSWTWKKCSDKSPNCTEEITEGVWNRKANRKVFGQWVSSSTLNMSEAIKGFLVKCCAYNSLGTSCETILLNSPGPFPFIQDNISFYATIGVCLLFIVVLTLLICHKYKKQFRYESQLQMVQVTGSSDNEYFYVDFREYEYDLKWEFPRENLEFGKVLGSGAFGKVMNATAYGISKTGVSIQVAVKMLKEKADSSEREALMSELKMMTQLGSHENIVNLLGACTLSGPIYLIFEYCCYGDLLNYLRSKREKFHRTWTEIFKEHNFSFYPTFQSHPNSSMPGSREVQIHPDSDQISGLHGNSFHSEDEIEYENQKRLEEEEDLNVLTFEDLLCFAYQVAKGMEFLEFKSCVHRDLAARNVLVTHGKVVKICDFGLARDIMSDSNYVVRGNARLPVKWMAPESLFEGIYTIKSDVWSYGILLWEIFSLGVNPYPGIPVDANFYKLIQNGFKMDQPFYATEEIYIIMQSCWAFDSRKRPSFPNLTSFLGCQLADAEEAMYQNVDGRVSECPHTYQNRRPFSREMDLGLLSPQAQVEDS

- IC50 (Aurora kinase B): 12 nM
- IC50 [1]: 0.67 nM
Structure (SMILES): CCc1ccc(-c2nc(C(N)=O)c(-c3ccc(N4CCNC(C)(C)C4)cc3)o2)c2cc[nH]c12
